Measurements: ChEMBL document CHEMBL1201862, “PubChem BioAssay data set” (2004)
Calls of active or inactive are those of the source.

Key:
[1] = Counterscreen for IDE inhibitors: Luminescence-based cell-based high throughput dose response assay to identify compounds that are cytotoxic to HEK cells. [Related pubchem assays: 434962 (Primary screen (IDE inhibitors in singlicate)), 449730 (Counterscreen (Cytotoxicity in triplicate)), 435028 (Confirmation (IDE inhibitors in triplicate)) …; assay type: functional; settings: HEK293
Insulin-degrading enzyme = target: T1, Insulin-degrading enzyme (Homo sapiens, UniProt P14735); test: Dose Response: Fluorescence polarization-based cell-based high throughput dose response assay for inhibitors of insulin-degrading enzyme (IDE). [Related pubchem assays: 434962 (Primary screen (IDE inhibitors in singlicate)), 449730 (Counterscreen (Cytotoxicity in triplicate)), 435028 (Confirmation (IDE inhibitors in triplicate)), 434984 (Summary …; assay type: functional
T1 sequence (P14735 whole entry): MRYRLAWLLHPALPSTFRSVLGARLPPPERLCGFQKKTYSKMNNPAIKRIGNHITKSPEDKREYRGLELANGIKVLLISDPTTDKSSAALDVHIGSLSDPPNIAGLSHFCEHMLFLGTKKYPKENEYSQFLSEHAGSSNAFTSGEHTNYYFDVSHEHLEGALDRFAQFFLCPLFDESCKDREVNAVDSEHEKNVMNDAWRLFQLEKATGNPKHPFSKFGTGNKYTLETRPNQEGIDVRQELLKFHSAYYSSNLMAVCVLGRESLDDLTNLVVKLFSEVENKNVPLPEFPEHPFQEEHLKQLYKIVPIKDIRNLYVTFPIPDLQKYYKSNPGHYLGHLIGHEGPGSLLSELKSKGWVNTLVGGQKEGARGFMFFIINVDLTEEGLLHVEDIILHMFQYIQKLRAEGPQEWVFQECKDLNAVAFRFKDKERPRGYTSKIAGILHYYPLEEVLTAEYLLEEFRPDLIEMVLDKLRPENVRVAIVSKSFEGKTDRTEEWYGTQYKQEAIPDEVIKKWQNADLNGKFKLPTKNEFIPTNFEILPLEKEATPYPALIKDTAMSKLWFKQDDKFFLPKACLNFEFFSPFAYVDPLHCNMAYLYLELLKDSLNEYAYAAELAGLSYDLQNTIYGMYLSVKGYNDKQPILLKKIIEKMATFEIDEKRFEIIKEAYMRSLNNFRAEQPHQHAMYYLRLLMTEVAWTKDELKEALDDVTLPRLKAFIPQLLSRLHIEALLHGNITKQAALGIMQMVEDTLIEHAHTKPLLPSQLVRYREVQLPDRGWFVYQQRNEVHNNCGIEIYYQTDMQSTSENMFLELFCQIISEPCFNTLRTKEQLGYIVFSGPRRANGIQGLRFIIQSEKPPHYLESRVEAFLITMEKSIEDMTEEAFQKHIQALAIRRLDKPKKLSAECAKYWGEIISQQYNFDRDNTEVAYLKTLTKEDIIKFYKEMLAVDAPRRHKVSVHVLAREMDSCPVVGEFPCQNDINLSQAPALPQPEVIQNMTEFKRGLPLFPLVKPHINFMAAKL

Troponin, cardiac muscle = Troponin, cardiac muscle (Homo sapiens, UniProt P19429+P45379+P63316); test: Fluorescence-based biochemical high throughput dose response assay for activators of the calcium sensitivity of cardiac Regulated Thin Filaments (RTF). [Related pubchem assays (depositor defined):AID493008, AID493018, AID504382, AID504383]; assay type: protein-complex assay
[2] = enhancers of respiration in Yfh1-depleted yeast, dose response, Friedreich's ataxia, plus single-dose screen (AID 1465); assay type: functional;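 also: yeast depleted of Yfh1p frataxin homolog grown on glycerol needing respiration; WST-1 tetrazolium dye reduction as measure of cellular dehydrogenase metabolic activity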
[3] = HepG2 cell cytotoxicity, dose response, cytotoxicity control for non-replicating M. tuberculosis project (AID 489018); assay type: functional; settings: Mycobacterium tuberculosis
HEK293 [4] = test: cells; assay type: functional, cell-based; settings: Homo sapiens
HEK293 [5] = test: NOD1 signaling inhibitors, primary screen, cell-based, luminescence, uHTS (AID 1578); assay type: functional; settings: Homo sapiens
HEK293 [6] = test: cells; assay type: functional, cell-based; settings: Homo sapiens; remark: listed apart in the source
[7] = THP-1 cell cytotoxicity, dose response, cytotoxicity control for non-replicating M. tuberculosis project (AID 489025); assay type: functional
[8] = Vero E6 cell cytotoxicity, dose response, cytotoxicity control for non-replicating M. tuberculosis project, secondary assay (AID 492998); assay type: functional, VeroE6; settings: Vero C1008
[9] = LGR2 antagonists, dose response, cell-based, HEK293, CRE-luciferase reporter, cherry pick, set 2 (AID 743343); assay type: functional;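 also: transfected cells were stimulated with diluted bursicon conditioned medium after compound addition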
[10] = cytotoxicity in HEK-293T cells, dose response, cytotoxicity control for TCR NF-kB inhibitor project, luminescence, T-cell screen hits (AID 489026); assay type: functional, cell-based;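 also: cells exposed to compound about 14 hours before the viability readout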
[11] = HepG2 cell cytotoxicity, dose response, cytotoxicity control, plate reader, cherry-pick, antagonist series (AID 743416); assay type: functional, cell-based
[12] = MC4R antagonists, dose response, counter-screen for LGR2 antagonist project, cell-based, plate reader, cherry pick (AID 743444); assay type: functional;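 also: transfected HEK 293 cells stimulated with alpha-MSH peptide; potency of inhibitors of the alpha-MSH evoked signal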
[13] = HEK293 cell cytotoxicity, dose response, cytotoxicity control, plate reader, cherry-picked samples (AID 743446); assay type: functional, cell-based
[14] = target: T2, Heat shock factor protein 1 (Mus musculus, UniProt P38532); test: inhibition of MG132-induced HSE-luciferase signal, confirmation, cell-based, NIH3T3, luminescence, dose retest (AID 2382); assay type: functional;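 also: NIH3T3 fibroblasts with HSF1-driven luciferase reporter stressed by proteasome inhibitor MG132; luminescence from HSF1-driven luciferase expression after 8 hours of MG132 stress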
T2 sequence (P38532 whole entry): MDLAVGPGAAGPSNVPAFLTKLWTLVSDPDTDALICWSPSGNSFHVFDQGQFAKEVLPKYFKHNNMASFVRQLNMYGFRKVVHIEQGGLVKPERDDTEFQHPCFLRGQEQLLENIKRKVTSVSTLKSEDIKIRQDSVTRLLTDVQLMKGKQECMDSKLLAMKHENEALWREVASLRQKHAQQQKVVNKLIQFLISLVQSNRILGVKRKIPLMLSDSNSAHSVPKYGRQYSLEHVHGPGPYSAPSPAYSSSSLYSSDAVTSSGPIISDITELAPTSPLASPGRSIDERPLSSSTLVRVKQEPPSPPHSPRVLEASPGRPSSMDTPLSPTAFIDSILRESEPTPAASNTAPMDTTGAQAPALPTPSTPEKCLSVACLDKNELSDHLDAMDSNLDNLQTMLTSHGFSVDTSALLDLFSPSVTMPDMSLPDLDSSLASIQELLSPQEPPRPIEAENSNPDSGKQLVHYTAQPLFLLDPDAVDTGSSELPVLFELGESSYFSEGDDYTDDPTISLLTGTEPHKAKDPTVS

[15] = target: E3 ubiquitin-protein ligase Mdm2/Protein Mdm4 (Homo sapiens, UniProt O15151+Q00987); test: Mdm2-MdmX interaction inhibitors, dose response, luminescence detection (AID 504593); assay type: functional
[16] = A549 cell cytotoxicity, dose response, cytotoxicity control, plate reader, cherry-pick, antagonist series (AID 743412); assay type: functional, cell-based
[17] = ZM109 Env clade C HIV-1 fusion inhibitors, dose response, HeLa effector, CEM target cells, luciferase, cherry-pick (AID 652058); assay type: functional, cell-based
[18] = CEM21 lymphoblast cell cytotoxicity, dose response, cytotoxicity control for viral fusion inhibitor project, CellTiter-Glo luminescence, cherry-picked (AID 652042); assay type: functional, cell-based;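 also: potency for signal decrease meaning cytotoxicity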
[19] = off-target signal loss in HeLa-CEM21 co-culture – HeLa F-luc CTL cells, cherry-picked, counter-screen for HIV-1 Env fusion inhibitor project, dose response (AID 652040); assay type: functional, cell-based;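 also: potency for signal decrease marking cytotoxic or nonspecific inhibition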
[20] = target: Neurotensin receptor type 1 (Homo sapiens, UniProt P30989); assay type: functional;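 also: Image-based confirmatory dose-response assay measuring agonist activity at NTR1; NTR1-expressing U2OS osteosarcoma cells imaged for beta-arrestin GFP spot formation; agonist potency where compounds increase beta-arrestin recruitment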
INS1 = test: beta cell apoptosis inhibitors, cytokine rescue, dose response, luminescence, retest (AID 449756); assay type: functional, cell-based; settings: Rattus norvegicus;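 also: cell death triggered by IL-1 beta plus TNF-alpha plus IFN-gamma mixture; protective hits raise ATP signal compared with cytokine alone wells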
[21] = Luminescence Cell-Based Dose Retest to Confirm Inhibitors of Cancer Stem Cells. [Related pubchem assays (depositor defined):AID2717, AID2721]; assay type: functional; settings: Homo sapiens
[22] = cytotoxicity toward NIH3T3 fibroblasts, dose response, counter-screen, cell-based, ATP luminescence, mouse fibroblasts (AID 2010); assay type: functional;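 also: cells exposed to compound for about 90 hours before reading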
[23] = target: G-protein coupled receptor 55 (Homo sapiens, UniProt Q9Y2T6); test: GPR55 antagonists blocking LPI-driven arrestin recruitment, primary screen, imaging, U2OS, beta-arrestin-GFP, LPI agonist (AID 2013); assay type: functional;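 also: antagonist potency measured as reduced agonist-driven arrestin aggregation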
[24] = inhibitors of HIV Env-driven cell fusion, dose response, cherry-pick (AID 652057); assay type: functional, cell-based
[25] = inhibitors of intracellular T. cruzi replication, confirmation, NIH3T3 host cells, beta-gal luminescence (AID 2044); assay type: functional, cell-based;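 also: intracellular parasites grown in NIH/3T3 mouse fibroblasts as host cells; luminescent beta-galactosidase reporter signal from transgenic T. cruzi replicating inside host cells; inhibitors lower the luminescence signal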
cells = assay type: functional
[26] = inhibitors of clade B AD8 Env fusion, dose response, cell-based, cherry-pick (AID 652062); assay type: functional;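 also: luciferase signal from cell-cell fusion driven by HIV-1 clade B AD8 Env; potency is for inhibitors of fusion seen as a drop in luminescence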
[27] = target: DNA dC->dU-editing enzyme APOBEC-3A (Homo sapiens, UniProt P31941); test: APOBEC3A DNA deaminase inhibitors, dose response, biochemical (AID 504722); assay type: functional
Beta-lactamase [28] = target: Beta-lactamase (Salmonella choleraesuis (strain SC-B67), UniProt Q5J463); test: Epi-absorbance-based counterscreen for selective VIM-2 inhibitors: dose response biochemical high throughput screening assay to identify inhibitors of TEM-1 serine-beta-lactamase.
Beta-lactamase [29] = target: T3, Beta-lactamase (Pseudomonas aeruginosa, UniProt Q79MP6); test: […] counterscreen for selective VIM-2 inhibitors: dose response biochemical high throughput screening assay to identify inhibitors of IMP-1 metallo-beta-lactamase.
Beta-lactamase [30] = target: T3, Beta-lactamase; test: IMP-1 metallo-beta-lactamase inhibitors, dose response, selectivity assay for VIM-2 inhibitor project, biochemical, epi-absorbance (AID 1920)
[31] = target: DNA dC->dU-editing enzyme APOBEC-3G (Homo sapiens, UniProt Q9HC16); test: Dose Response confirmation of small molecule APOBEC3G DNA Deaminase Inhibitors via a fluorescence-based single-stranded DNA deaminase assay. [Related pubchem assays (depositor defined):AID493012, AID493028]; assay type: functional
[32] = target: Delta-type opioid receptor (Homo sapiens, UniProt P41143); test: SAR Analysis of Antagonists of the DOR Receptor using an Image-Based Assay - Set 3. [Related pubchem assays (depositor defined):AID1777, AID1785]; assay type: functional;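 also: U2OS cells expressing DOR1 and beta-arrestin GFP stimulated with 100 nM SNC80; imaging of GFP-tagged beta-arrestin moving into spots after receptor activation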
Mu-type opioid receptor = Mu-type opioid receptor (Homo sapiens, UniProt P35372); test: SAR Analysis of Antagonists of the MOR Receptor using an Image-Based Assay - Set 3. [Related pubchem assays (depositor defined):AID1777, AID1785, AID1786, AID1966, AID2133, AID2136, AID2284, AID2285, AID2420]; assay type: functional
[33] = system: Streptococcus sp. 'group A'; test: growth inhibition of control SK(-) GAS strain, dose response, counter-screen for streptokinase expression inhibitor project, luminescence, kanamycin, BacTiterGlo, confirmation (AID 1900); assay type: functional, organism-based
Streptococcus = test: Group A Streptococcus viability loss, dose response, counter-screen for streptokinase expression inhibitor project, luminescence, BacTiterGlo (AID 1915); assay type: functional, organism-based;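 also: potency for reduction of bacterial viability or growth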
Streptokinase A = target: T4, Streptokinase A (Streptococcus pyogenes serotype M1, UniProt P10520); test: S. pyogenes streptokinase expression inhibitors, potency, dose response, plasminogen activation absorbance, OD405 (AID 1914); assay type: functional, Streptococcus pyogenes M1 GAS;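 also: secreted streptokinase activity via plasminogen activation per viability signal from cell pellet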
T4 sequence (P10520 whole entry): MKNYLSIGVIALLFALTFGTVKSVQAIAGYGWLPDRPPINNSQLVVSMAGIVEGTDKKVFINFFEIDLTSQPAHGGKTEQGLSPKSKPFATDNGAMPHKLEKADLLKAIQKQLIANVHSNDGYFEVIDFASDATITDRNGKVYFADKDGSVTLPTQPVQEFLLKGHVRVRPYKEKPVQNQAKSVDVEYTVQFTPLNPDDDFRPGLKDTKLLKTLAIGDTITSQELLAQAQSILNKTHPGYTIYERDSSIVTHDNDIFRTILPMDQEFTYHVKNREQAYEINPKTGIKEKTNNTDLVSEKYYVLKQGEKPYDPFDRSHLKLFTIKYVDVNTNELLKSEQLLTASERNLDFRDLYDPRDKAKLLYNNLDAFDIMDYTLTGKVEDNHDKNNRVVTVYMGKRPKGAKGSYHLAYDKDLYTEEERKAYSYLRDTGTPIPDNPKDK

Sequence of DNA dC->dU-editing enzyme APOBEC-3A (P31941 whole entry): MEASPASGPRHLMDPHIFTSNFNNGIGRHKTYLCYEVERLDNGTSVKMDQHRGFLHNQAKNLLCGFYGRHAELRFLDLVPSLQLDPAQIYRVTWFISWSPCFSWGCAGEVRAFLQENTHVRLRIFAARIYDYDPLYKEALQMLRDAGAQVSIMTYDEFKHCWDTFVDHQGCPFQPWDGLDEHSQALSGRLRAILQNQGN
T3 sequence (Q79MP6 whole entry): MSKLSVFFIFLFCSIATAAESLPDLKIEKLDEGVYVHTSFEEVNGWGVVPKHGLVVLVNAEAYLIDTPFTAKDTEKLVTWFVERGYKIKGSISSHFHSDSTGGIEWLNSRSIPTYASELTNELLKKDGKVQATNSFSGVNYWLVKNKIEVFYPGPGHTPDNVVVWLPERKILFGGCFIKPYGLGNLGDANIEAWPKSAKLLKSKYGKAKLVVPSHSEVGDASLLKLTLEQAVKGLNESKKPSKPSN
Sequence of DNA dC->dU-editing enzyme APOBEC-3G (Q9HC16 whole entry): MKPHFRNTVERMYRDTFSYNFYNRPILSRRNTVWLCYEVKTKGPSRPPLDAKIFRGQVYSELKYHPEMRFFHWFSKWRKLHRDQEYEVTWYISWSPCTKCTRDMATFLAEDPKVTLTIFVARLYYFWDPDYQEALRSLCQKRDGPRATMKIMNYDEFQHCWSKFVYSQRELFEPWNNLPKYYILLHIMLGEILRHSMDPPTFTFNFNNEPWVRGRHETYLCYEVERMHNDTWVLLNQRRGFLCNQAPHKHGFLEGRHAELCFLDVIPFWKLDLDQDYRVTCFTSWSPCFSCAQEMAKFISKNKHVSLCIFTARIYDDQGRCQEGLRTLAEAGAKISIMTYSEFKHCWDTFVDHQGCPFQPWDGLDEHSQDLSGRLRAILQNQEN
Sequence of E3 ubiquitin-protein ligase Mdm2/Protein Mdm4 (Q00987 whole entry): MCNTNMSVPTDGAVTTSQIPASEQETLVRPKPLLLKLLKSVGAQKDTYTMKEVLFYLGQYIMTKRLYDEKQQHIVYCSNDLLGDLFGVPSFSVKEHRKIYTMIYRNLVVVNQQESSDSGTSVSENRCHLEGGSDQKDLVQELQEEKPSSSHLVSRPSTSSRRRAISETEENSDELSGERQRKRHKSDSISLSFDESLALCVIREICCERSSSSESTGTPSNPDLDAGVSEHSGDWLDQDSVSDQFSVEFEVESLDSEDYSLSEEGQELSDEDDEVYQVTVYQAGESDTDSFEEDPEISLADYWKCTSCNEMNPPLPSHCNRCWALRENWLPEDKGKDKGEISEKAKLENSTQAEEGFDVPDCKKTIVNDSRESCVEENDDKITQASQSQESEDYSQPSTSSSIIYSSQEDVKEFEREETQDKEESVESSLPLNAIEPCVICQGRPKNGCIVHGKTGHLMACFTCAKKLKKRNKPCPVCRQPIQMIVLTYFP
Sequence of E3 ubiquitin-protein ligase Mdm2/Protein Mdm4 (O15151 whole entry): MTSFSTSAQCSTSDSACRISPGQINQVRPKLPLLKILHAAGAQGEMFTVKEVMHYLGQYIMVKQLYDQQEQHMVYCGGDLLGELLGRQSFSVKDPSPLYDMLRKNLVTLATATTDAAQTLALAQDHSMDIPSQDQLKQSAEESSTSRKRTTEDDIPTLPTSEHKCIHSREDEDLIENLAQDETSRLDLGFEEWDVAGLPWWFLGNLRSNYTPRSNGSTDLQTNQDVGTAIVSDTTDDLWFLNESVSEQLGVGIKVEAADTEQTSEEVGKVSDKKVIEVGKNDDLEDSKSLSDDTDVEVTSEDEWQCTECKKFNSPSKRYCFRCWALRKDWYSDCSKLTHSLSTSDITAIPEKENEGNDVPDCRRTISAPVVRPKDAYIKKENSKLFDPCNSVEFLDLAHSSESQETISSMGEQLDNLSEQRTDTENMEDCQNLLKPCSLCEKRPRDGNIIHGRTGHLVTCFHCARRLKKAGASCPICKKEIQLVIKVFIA
Sequence of Delta-type opioid receptor (P41143 whole entry): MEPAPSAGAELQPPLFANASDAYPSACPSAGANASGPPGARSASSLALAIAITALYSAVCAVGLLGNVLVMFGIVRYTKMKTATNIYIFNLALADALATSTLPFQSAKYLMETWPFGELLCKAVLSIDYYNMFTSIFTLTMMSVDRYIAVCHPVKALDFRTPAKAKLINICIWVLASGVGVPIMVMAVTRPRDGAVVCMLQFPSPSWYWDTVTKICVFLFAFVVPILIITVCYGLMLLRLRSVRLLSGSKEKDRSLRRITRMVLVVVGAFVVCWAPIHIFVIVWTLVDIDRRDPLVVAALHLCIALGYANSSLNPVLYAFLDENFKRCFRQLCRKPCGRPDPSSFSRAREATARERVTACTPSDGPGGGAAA
Sequence of G-protein coupled receptor 55 (Q9Y2T6 whole entry, the tested form may be a part): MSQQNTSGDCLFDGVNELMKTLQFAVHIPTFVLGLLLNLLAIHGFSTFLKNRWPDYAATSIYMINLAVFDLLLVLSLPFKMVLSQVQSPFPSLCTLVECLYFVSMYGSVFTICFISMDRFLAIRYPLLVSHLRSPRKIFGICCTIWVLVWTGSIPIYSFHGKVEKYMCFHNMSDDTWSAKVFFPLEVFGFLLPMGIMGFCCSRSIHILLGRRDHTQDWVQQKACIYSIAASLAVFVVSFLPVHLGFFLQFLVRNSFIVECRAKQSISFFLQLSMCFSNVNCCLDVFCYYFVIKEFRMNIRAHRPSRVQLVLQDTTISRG
Sequence of Mu-type opioid receptor (P35372 whole entry): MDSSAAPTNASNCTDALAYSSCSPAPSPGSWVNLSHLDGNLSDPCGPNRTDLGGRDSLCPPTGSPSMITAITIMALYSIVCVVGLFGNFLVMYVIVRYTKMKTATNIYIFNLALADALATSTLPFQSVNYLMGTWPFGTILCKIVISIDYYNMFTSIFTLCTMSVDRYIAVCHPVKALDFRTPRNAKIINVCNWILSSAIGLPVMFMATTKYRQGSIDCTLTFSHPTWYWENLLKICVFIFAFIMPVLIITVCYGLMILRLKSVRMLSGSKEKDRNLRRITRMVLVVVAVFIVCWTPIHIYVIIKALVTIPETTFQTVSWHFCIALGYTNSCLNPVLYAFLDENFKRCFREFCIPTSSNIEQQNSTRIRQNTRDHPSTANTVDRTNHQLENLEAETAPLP
Sequence of Neurotensin receptor type 1 (P30989 whole entry): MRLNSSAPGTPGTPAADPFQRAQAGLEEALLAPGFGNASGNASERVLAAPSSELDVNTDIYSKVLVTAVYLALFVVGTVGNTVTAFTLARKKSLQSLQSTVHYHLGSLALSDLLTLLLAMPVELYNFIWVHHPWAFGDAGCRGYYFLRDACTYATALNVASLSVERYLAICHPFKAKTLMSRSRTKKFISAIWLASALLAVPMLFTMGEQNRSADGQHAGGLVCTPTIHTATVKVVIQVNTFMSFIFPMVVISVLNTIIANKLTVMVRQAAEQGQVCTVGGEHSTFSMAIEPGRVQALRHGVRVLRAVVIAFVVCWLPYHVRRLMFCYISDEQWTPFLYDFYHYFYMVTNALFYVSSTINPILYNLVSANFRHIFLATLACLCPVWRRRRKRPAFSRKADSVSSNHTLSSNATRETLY
Sequence of Beta-lactamase (Salmonella choleraesuis (strain SC-B67), UniProt Q5J463) (Q5J463 whole entry): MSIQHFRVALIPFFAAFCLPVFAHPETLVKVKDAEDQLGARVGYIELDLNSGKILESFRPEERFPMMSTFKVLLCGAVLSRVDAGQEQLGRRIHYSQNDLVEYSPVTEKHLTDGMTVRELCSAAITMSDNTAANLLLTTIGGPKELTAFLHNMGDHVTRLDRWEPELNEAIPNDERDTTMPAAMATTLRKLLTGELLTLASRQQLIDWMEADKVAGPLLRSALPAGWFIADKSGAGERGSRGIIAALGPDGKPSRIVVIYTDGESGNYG

N#C/C(=C\c1ccc(N2CCOCC2)o1)C(=O)NC1CCCCC1
active: IC50 (Insulin-degrading enzyme) 8.05 µM | EC50 (Troponin, cardiac muscle) 6.89 µM | EC50 [2] > 100 µM
31.8 µM (not active): IC50 [1]

CN(C)S(=O)(=O)Oc1ccc(C(=O)Nc2cccc(C(F)(F)F)c2)cc1
active: CC50 [3] > 20 µM | IC50 (HEK293 [4]) 12.1 µM | EC50 (HEK293 [5]) 10.9 µM | IC50 (HEK293 [6]) 6.71 µM | CC50 [7] > 40 µM | CC50 [8] > 20 µM

O=c1oc2ccccc2cc1-c1cn(-c2ccccc2)c(S)n1
active: AC50 [9] 0.316 µM | AC50 [11] 19.4 µM | AC50 [12] 0.259 µM | AC50 [13] 19.4 µM | EC50 [14] < 0.16 µM | IC50 [15] 0.00374 µM | AC50 [16] 8.78 µM
inactive: IC50 [10] > 80 µM

CC(NCC(O)COCCC12CC3CC(CC(C3)C1)C2)c1ccccc1 (configuration not stated)
> 60 µM (not active): EC50 [22]
active: AC50 [17] 11.2 µM | AC50 [18] 13.3 µM | CC50 [3] 12.7 µM | AC50 [19] 6.93 µM | EC50 [20] 19.9 µM | AC50 (INS1) 7.3 µM | AC50 [21] 6.14 µM | IC50 [23] 3.25 µM | AC50 [24] 3.45 µM | EC50 [25] 0.157 µM | IC50 (cells) 14.6 µM | CC50 [7] 12.5 µM | CC50 [8] 13.7 µM | AC50 [26] 16.8 µM

Sc1nnc(-c2cccs2)n1C1CCCCC1
active: IC50 [31] 4.59 µM
inactive: IC50 [27] > 100 µM | IC50 (Beta-lactamase [28]) > 59.6 µM | IC50 (Beta-lactamase [29]) > 59.6 µM | IC50 (Beta-lactamase [30]) > 59.6 µM

Cc1ccc(S(=O)(=O)NCc2ccc(C(=O)NCCN(Cc3ccc(Br)cc3)C(C)C)cc2)cc1
inactive: IC50 [32] > 32 µM | IC50 (Mu-type opioid receptor) > 32 µM

CCC(/C=C1\Oc2ccc(OC)cc2N1C)=C\c1sc2ccccc2[n+]1CCCS(=O)(=O)[O-]
active: EC50 (Troponin, cardiac muscle) 0.853 µM

Cc1cc(-c2nnc(S)n2/N=C/c2ccc(C)s2)[nH]n1
active: IC50 [31] 2.28 µM
inactive: IC50 [27] > 100 µM

C/C(=N\Nc1cc(C)nc(-c2ccccc2O)n1)c1ccccc1O
> 150 µM (not active): EC50 (Streptococcus)
active: EC50 [33] 4.57 µM | EC50 (Streptokinase A) 14 µM | IC50 [15] 6.71 µM
